Usually IC50 stands for the concentration that gives 50% inhibition.

One assay has as its target human MASP1 (Homo sapiens (Human), UniProt P48740). Briefly: Biochemical human MASP1 assay (FRET substrate). The conditions noted are these: Average IC50; recombinant human MASP1; read-out: human MASP1 IC50. A digest of the protocol: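 Recombinant human MASP1 (aa 297-699, C-terminal His tag, HEK293-expressed, Ni-NTA purified) diluted to 20 nM in 50 mM HEPES pH 8,0, 100 mM NaCl, 0,01% CHAPS, 0.5 mM glutathione, preincubated with compound in DMSO; reaction started with 20 μM ABZ/Dnp FRET substrate solution. Fluorescence (ex 320/em 420 nm) after 60-120 min at 32 C; IC50 from % inhibition.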

The next assay addresses human MASP2 (Homo sapiens (Human), UniProt O00187). Briefly: Biochemical human MASP2 assay (FRET substrate). The note with it: Average IC50; recombinant human MASP2; read-out: human MASP2 IC50. The method in brief: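 Mature recombinant human MASP2, expressed in HEK293 and purified by Ni-NTA affinity, was reacted with a DABCYL FRET peptide substrate (added as a 60 μM solution) for 60-120 min at 32 C. Fluorescence increase was read at ex 340/em 490 nm; IC50 was derived from % inhibition versus compound concentration.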

Assay [1] relates to Human C3-DEPOSITION SERUM. Briefly: C3 deposition assay, human serum on mannan-coated plates. It counts as biochemical. The note with it: Average IC50, read-out: Human C3-DEPOSITION SERUM IC50. How it is done:
3. C3 Deposition Assay (Human, Rat, Mouse, Dog, Pig))
The C3 deposition assay was conducted essentially as described (reference). Multiwell plates (Greiner-Nunc 384 Maxi Sorp #464718) were coated over night with Mannan from Saccharomyces cerevisiae (Sigma M7504, 10 μg/mL in 0.05 M carbonate-bicarbonate buffer, pH 9.6) at 4° C. Wells were washed three times with TBS and subsequently incubated for 2 hours with 50 μL of 1% bovine serum albumin (BSA) in Tris-buffered saline (TBS) at 37° C. in order to block non-specific binding. After this step and each of the following incubation steps wells were washed three times with C3 wash buffer (TBS; 0.05% Tween 20; 5 mM CaCl2). […] When appropriately developed the color reaction was stopped by addition of 25 μL of stop solution (Sigma S5814) and quantified on a photometer by measuring absorption at a wavelength of 450 nm. Antibodies were diluted in C3 wash buffer supplemented with 0.5% BSA.

Where a SMILES comes first, the peptide text is derived from it. Bridges are numbered along the chain shown (N, C = ends). [ ]: non-standard residue; d: D form. ξ: configuration not given here. tBuAla = CC(C)(C)C[C@H](N)C(=O)O; Pen = CC(C)(S)[C@H](N)C(=O)O; ξIle = CC[C@H](C)C(N)C(=O)O; NMeC = CN[C@@H](CS)C(=O)O; Orn = NCCC[C@H](N)C(=O)O; Dab = NCC[C@H](N)C(=O)O; Dap = NC[C@H](N)C(=O)O; Ahx = NCCCCCC(=O)O

Sequence of human MASP2 (O00187 other isoform, or with tags, fused parts or gaps): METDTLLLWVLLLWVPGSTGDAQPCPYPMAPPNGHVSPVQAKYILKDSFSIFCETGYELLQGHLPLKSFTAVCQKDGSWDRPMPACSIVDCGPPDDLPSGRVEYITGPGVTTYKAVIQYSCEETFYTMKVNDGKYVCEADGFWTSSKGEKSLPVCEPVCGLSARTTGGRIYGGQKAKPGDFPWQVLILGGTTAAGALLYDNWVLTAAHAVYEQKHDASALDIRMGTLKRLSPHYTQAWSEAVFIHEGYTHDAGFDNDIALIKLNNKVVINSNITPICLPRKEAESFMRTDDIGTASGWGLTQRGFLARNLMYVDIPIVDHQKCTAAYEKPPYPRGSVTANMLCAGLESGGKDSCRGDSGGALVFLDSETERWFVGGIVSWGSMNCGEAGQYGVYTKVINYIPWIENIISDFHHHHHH
Sequence of human MASP1 (P48740 other isoform, or with tags, fused parts or gaps): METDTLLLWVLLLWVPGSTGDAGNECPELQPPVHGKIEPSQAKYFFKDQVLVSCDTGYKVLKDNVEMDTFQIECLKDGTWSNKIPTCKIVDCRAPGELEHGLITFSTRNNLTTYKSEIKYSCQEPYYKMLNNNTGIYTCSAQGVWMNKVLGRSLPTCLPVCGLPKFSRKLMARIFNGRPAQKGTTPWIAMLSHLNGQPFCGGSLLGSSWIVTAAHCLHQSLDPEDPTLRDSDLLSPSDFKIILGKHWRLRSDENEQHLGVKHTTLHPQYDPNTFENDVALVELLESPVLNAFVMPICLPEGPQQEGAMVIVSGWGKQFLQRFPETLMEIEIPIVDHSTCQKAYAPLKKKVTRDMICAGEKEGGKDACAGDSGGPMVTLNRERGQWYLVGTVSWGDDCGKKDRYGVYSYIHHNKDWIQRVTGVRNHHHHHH

Take `CC[C@H](C)[C@@H]1NC(=O)CNC(=O)CNC(=O)[C@H](C)NC(=O)[C@H](CC(=O)O)NC(=O)[C@@H]2CCCN2C(=O)[C@H]([C@@H](C)CC)NC(=O)[C@H]2NC(=O)[C@H]([C@@H](C)CC)NC(=O)[C@@H]3CCCN3C(=O)[C@@H]3CCCN3C(=O)[C@H](CC(C)(C)C)NC(=O)[C@H](CO)NC(=O)[C@H](CCCNC(=N)N)NC(=O)[C@H](CO)NC(=O)[C@H](CSSC2(C)C)NC1=O` [Example 29] (cyclo(AGGICSRS[tBuAla]PPI[Pen]IPD); disulfide 5-13): the half-inhibitory concentration (IC50) came out at 8.6 nM at human MASP1, 68 nM at human MASP2 and 84.6 nM in assay [1].
`CC[C@H](C)[C@@H]1NC(=O)[C@H](C)NC(=O)CCCCCNC(=O)[C@H](CC(=O)O)NC(=O)[C@@H]2CCCN2C(=O)[C@H]([C@@H](C)CC)NC(=O)[C@@H]2CSSC[C@H](NC1=O)C(=O)N[C@@H](CO)C(=O)N[C@@H](CCCNC(=N)N)C(=O)N[C@@H](CO)C(=O)N[C@@H](CC(C)(C)C)C(=O)N1CCC[C@H]1C(=O)N1CCC[C@H]1C(=O)N[C@@H]([C@@H](C)CC)C(=O)N2C` [Example 32] (cyclo(AICSRS[tBuAla]PPI[NMeC]IPD[Ahx]); disulfide 3-11): the IC50 is 22 nM on human MASP1, 63.5 nM on human MASP2 and 121 nM in assay [1].
With `CC[C@H](C)[C@@H]1NC(=O)CCCNC(=O)[C@H](CC(=O)O)NC(=O)[C@@H]2CCCN2C(=O)[C@H]([C@@H](C)CC)NC(=O)[C@@H]2CSSC[C@H](NC1=O)C(=O)N[C@@H](CO)C(=O)N[C@@H](CCCNC(=N)N)C(=O)N[C@@H](CO)C(=O)N[C@@H](CC(C)(C)C)C(=O)N1CCC[C@H]1C(=O)N1CCC[C@H]1C(=O)N[C@@H]([C@@H](C)CC)C(=O)N2C` [Example 36], the values for the IC50 (on human MASP1; at human MASP2; in assay [1]) were 8.7 nM, 110 nM and 8.68 nM, respectively.
Regarding `CC[C@H](C)[C@@H]1NC(=O)[C@H](C)NC(=O)CNC(=O)C[C@@H](C(N)=O)NC(=O)[C@@H]2CCCN2C(=O)[C@H]([C@@H](C)CC)NC(=O)[C@@H]2CSSC[C@H](NC1=O)C(=O)N[C@@H](CO)C(=O)N[C@@H](CCCNC(=N)N)C(=O)N[C@@H](CO)C(=O)N[C@@H](CC(C)C)C(=O)N1CCC[C@H]1C(=O)N1CCC[C@H]1C(=O)N[C@@H]([C@@H](C)CC)C(=O)N2` [Example 37] (GAICSRSLPPICIPD-NH2; disulfide 4-12; lactam N-15), the results for the half-maximal inhibitory concentration (IC50) (at human MASP1; on human MASP2; in assay [1]) were 16 nM, 140 nM and 59.4 nM, respectively.
On to `CC[C@H](C)[C@@H]1NC(=O)[C@H](C)NC(=O)CCCCCNC(=O)C[C@@H](C(N)=O)NC(=O)[C@@H]2CCCN2C(=O)[C@H]([C@@H](C)CC)NC(=O)[C@H]2NC(=O)[C@H]([C@@H](C)CC)NC(=O)[C@@H]3C[C@@H]4CCCC[C@@H]4N3C(=O)[C@H]3CCCN3C(=O)[C@H](CC(C)C)NC(=O)[C@H](CO)NC(=O)[C@H](CCCNC(=N)N)NC(=O)[C@H](CO)NC(=O)[C@H](CSSC2(C)C)NC1=O` [Example 43], for which the half-maximal inhibitory concentration (IC50) came out at 6.7 nM on human MASP1, 120 nM on human MASP2 and 28.2 nM in assay [1].
As to `CC[C@H](C)C1NC(=O)[C@@H]2CSSC[C@H](NC(=O)[C@H]([C@@H](C)CC)NC(=O)[C@H](C)NC(=O)[C@@H](N)CCCNC(=O)C[C@@H](C(N)=O)NC(=O)[C@@H]3CCCN3C1=O)C(=O)N[C@@H](CO)C(=O)N[C@@H](CCCNC(=N)N)C(=O)N[C@@H](CO)C(=O)N[C@@H](CC(C)(C)C)C(=O)N1CCC[C@H]1C(=O)N1CCC[C@H]1C(=O)N[C@@H]([C@@H](C)CC)C(=O)N2C` (stereo partly drawn) [Example 44] (H-[Orn]AICSRS[tBuAla]PPI[NMeC][ξIle]PD-NH2; lactam 1-15; disulfide 4-12), the half-inhibitory concentration (IC50) at human MASP1 amounted to 4.7 nM; at human MASP2 it was 230 nM; in assay [1], 23.7 nM.
Take `CC[C@H](C)[C@@H]1NC(=O)[C@H](C)NC(=O)CCCCCNC(=O)[C@H](CC(=O)O)NC(=O)[C@@H]2CCCN2C(=O)[C@H]([C@@H](C)CC)NC(=O)[C@@H]2CSSC[C@H](NC1=O)C(=O)N[C@@H](CO)C(=O)N[C@@H](CCCNC(=N)N)C(=O)N[C@@H](CO)C(=O)N[C@@H](CC(C)(C)C)C(=O)N1CCC[C@H]1C(=O)N1CCC[C@H]1C(=O)N[C@@H]([C@@H](C)CC)C(=O)N2` [Example 46] (cyclo(AICSRS[tBuAla]PPICIPD[Ahx]); disulfide 3-11): the concentration for half-maximal inhibition (IC50) was 56 nM on human MASP1, 89 nM on human MASP2 and 228 nM in assay [1].
As to `CC[C@H](C)[C@@H]1NC(=O)[C@H](C)NC(=O)[C@@H](N)CSSC[C@@H](C(N)=O)NC(=O)[C@H](CC(=O)O)NC(=O)[C@@H]2CCCN2C(=O)[C@H]([C@@H](C)CC)NC(=O)[C@H]2NC(=O)[C@H]([C@@H](C)CC)NC(=O)[C@@H]3CCCN3C(=O)[C@@H]3CCCN3C(=O)[C@H](CC(C)(C)C)NC(=O)[C@H](CO)NC(=O)[C@H](CCCNC(=N)N)NC(=O)[C@H](CO)NC(=O)[C@H](CSSC2(C)C)NC1=O` [Example 50] (H-CAICSRS[tBuAla]PPI[Pen]IPDC-NH2; disulfide 1-16, 4-12), the 50% inhibitory concentration (IC50) on human MASP1 stood at 13 nM; at human MASP2 it was 210 nM; in assay [1] it was 228 nM.
Turning to `CC[C@H](C)[C@@H]1NC(=O)CCCCCNC(=O)[C@@H]2CCCN2C(=O)[C@H]([C@@H](C)CC)NC(=O)[C@H]2NC(=O)[C@H]([C@@H](C)CC)NC(=O)[C@@H]3CCCN3C(=O)[C@@H]3CCCN3C(=O)[C@H](CC(C)(C)C)NC(=O)[C@H](CO)NC(=O)[C@H](CCCNC(=N)N)NC(=O)[C@H](CO)NC(=O)[C@H](CSSC2(C)C)NC1=O` [Example 51] (cyclo([Ahx]ICSRS[tBuAla]PPI[Pen]IP); disulfide 3-11), the IC50 on human MASP1 came to 6.3 nM; on human MASP2, 17 nM; in assay [1], 28.2 nM.
On the same counts, the results for `CC[C@H](C)[C@@H]1NC(=O)[C@H](CN)NC(=O)[C@@H]2CCCN2C(=O)[C@H]([C@@H](C)CC)NC(=O)[C@H]2NC(=O)[C@H]([C@@H](C)CC)NC(=O)[C@@H]3CCCN3C(=O)[C@@H]3CCCN3C(=O)[C@H](CC(C)(C)C)NC(=O)[C@H](CO)NC(=O)[C@H](CCCNC(=N)N)NC(=O)[C@H](CO)NC(=O)[C@H](CSSC2(C)C)NC1=O` [Example 55, N-{3-[(6S,9S,12S,15S,18R,21S,24S,26aS,32S,35R,38S,40aS,45aS)-24-(aminomethyl)-21,32,38-tri[(2S)-butan-2-yl]-6-(2,2-dimethylpropyl)-9,15-bis(hydroxymethyl)-46,46-dimethyl-5,8,11,14,17,20,23,26,31,34,37,40,45-tridecaoxotetratetracontahydro-1H-18,35-(methanodithiomethano)tripyrrolo[1,2-a:1′,2′-d:1″,2″-p][1,4,7,10,13,16,19,22,25,28,31,34,37]tridecaazacyclononatriacontin-12-yl]propyl}guanidine] (cyclo(CSRS[tBuAla]PPI[Pen]IP[Dap]I); disulfide 1-9) are 46 nM, 900 nM and 382 nM.
As for `CC[C@H](C)[C@@H]1NC(=O)[C@H](CCN)NC(=O)[C@@H]2CCCN2C(=O)[C@H]([C@@H](C)CC)NC(=O)[C@H]2NC(=O)[C@H]([C@@H](C)CC)NC(=O)[C@@H]3CCCN3C(=O)[C@@H]3CCCN3C(=O)[C@H](CC(C)(C)C)NC(=O)[C@H](CO)NC(=O)[C@H](CCCNC(=N)N)NC(=O)[C@H](CO)NC(=O)[C@H](CSSC2(C)C)NC1=O` [Example 56, N-{3-[(6S,9S,12S,15S,18R,21S,24S,26aS,32S,35R,38S,40aS,45aS)-24-(2-aminoethyl)-21,32,38-tri[(2S)-butan-2-yl]-6-(2,2-dimethylpropyl)-9,15-bis(hydroxymethyl)-46,46-dimethyl-5,8,11,14,17,20,23,26,31,34,37,40,45-tridecaoxotetratetracontahydro-1H-18,35-(methanodithiomethano)tripyrrolo[1,2-a:1′,2′-d:1″,2″-p]-[1,4,7,10,13,16,19,22,25,28,31,34,37]tridecaazacyclononatriacontin-12-yl]propyl}guanidine] (cyclo(CSRS[tBuAla]PPI[Pen]IP[Dab]I); disulfide 1-9), the IC50 at human MASP1 stood at 86 nM; on human MASP2, 1100 nM; in assay [1], 566 nM.

Values taken from patent publication US20240010684A1, “MASP INHIBITORY COMPOUNDS AND USES THEREOF” (BAYER AKTIENGESELLSCHAFT, priority 2020, published 2024).
